Reference: US6601010B1 (priority 2000, dated 2003)
Counter-ions that a name gives are not always drawn. Like-named read-outs stand apart in the source and are kept apart here.

Legend:
BALB/c and C57BL/6 mice = assay: Wall rearing of mice counted by the force plate actometer algorithm; assay type: in vivo, mouse; settings: amphetamine 2.5 mg/kg, 30-min session
Source text: The preferred force plate actometer of this invention provides data that, when appropriately filtered and processed, provides estimates of the number of wall rears that an animal makes. This is of importance in pharmacology and behavioral genetics studies because some drugs are known to suppress rearing, and genetic endowment influences mouse rearing behavior. It is possible to detect wall rearing because when the mouse rears on hind legs and presses its forepaws against the side of the enclosure a substantial proportion of its body weight is transferred to the wall which is suspended above the force plate. […] Data from four chambers are concurrently expressed as the smoothed Fz values, and these are processed in a stream from the beginning of the session to the end of the session. The rears are quantified according to occurrence, intensity, duration of the rear, and time between the rears.
The program was validated by comparing the results from a human observer viewing video tapes taken from 30-min sessions of force plate recording for two mice: one BALB/c and one C57BL/6 mouse, two very genetically different mice. In terms of number of rears for the BALB/c mouse the video scored and computer scored wall rears were correlated +0.842 across 30 1-min blocks of the session. […]

male Sprague-Dawley rats = assay: Instrument-scored stereotypies induced by d-amphetamine in rats (force plate actometer); assay type: in vivo, rat
Procedure: The subjects were male Sprague-Dawley rats about 4 months old at the time of the treatments. Nine rats received amphetamine injections and 8 separate rats got physiological saline injections. These rats weighed about 350 g each and were obtained from Harlan Co., Indianapolis, Ind.
The apparatus was four concurrently operating force plate actometers as described previously.
Rats in the amphetamine group were injected (ip.) with d-amphetamine sulfate 3.0 mg/kg 15 min before being placed in the chambers for 30 min of recording. Amphetamine injections were administered on three separate occasions spaced 2 weeks apart for each amphetamine group rat. Data from the 3rd session, when stereotypies were expected to be intense, were used for the analyses. Rats in the saline group received ip injections of physiological saline before recording sessions on three separate days. Data from the 3rd day were used for comparison with the amphetamine group.
Data were analyzed with the computer program OFFLINEP.PAS (FIGS. 18A-18C) and with additional techniques available in Systat. The program OFFLINEP.PAS identified bouts of low mobility, defined as periods of no locomotion outside of a 30 mm diameter circle for 10.24 s. Corresponding records of the force variation during the same time frame were stored so that the rhythmic components of behavior could be quantified with Fourier analysis. The basic concept was to define stereotypy as the intensity and rhythm of behavior occurring in “one place” under the influence of a stereotypy-inducing dose of amphetamine and to compare these measures to animals “staying in one place” but not under the influence of a drug.

[1] = test system: unilaterally 6-hydroxydopamine lesioned and sham rats; assay: Rotational behavior induced by d-amphetamine in rats unilaterally lesioned with 6-hydroxydopamine (Parkinsonism model); assay type: in vivo, rat; settings: d-amphetamine 3.0 mg/kg ip
Procedure: These rats met the same specifications as those used in Examples 1 and 2.
The apparatus was the force plate actometer with the cylindrical insert installed as depicted in FIG. 20. This insert presents the rat with a circular arena in which it can move. Note that neither harness nor tether was used. The rotations were calculated by the computer from the position coordinates derived from the force plate.
Rats were lesioned with the neurotoxin 6-hydroxydopamine. Surgery was performed under ketamine plus xylazine anesthesia. A Kopf stereotaxic instrument was used to guide the injection cannula to the substantia nigra pars compacta. A sham surgery group received the same surgical procedure but saline instead of toxin. About 2 weeks after surgery and at two week intervals rats received three separate injections of d-amphetamine (3.0 mg/kg, ip, 15 min prior to recording sessions). Data shown here were from one control rat and one lesioned rat for the third drug treatment. Data were analyzed with the OFFLINEP.PAS program (FIGS. 18A-18C).

[2] = test system: BALB/c, C57BL/6 and CD-1 mice; assay: Mouse strain differences in response to daily treatment with d-amphetamine (force plate actometer); assay type: in vivo
Procedure: Male mice from Charles River Laboratories. BALB/c (n=32), C57BL/6 (n=32), and CD-1 (an outbred strain, n=32), were about 10 weeks old when the treatments began.
Four currently operating force plate chambers were used (the cylindrical insert was not present).
For each type of mouse, 4 dose groups were formed so that 8 mice of each strain received either saline, 1.0, 2.5 or 5.0 mg/kg d-amphetamine. On five consecutive days the mice received ip injections 1-2 min before being placed in the recording chambers for 30 min. Immediately before the drug session each mouse received a 30-min recording session preceded by a saline injection.
Data were analyzed with a version of OFFLINEP.PAS that divided the session into 9 intervals of 3 min and 24.8 s, instead of 45 frames as in the studies described in the preceding Examples. However, some graphic analyses were carried out with 45 frames. Analysis of variance was used to assess the effects of strain, dose, time within a session, and days of treatment (i.e., a 3×4×9×5 factorial design).

male Sprague Dawley rats = assay: Quantification of harmaline-induced tremor in rats (force plate actometer); assay type: in vivo, rat
Procedure: Thirty-two male Sprague Dawley rats from Harlan Co, Indianapolis, Ind., were studied.
The apparatus was the force plate actometer, described above, with no adjustments or modifications. If one were to use the instrument primarily for tremor studies, it would be possible to “tune” it for such purposes. For example, sessions of recording shorter than 30 min may be preferred and a sampling rate of 100 Hz or more may be desirable.
The rats were divided into 4 separate groups of 8 rats each. Separate groups received different doses of Harmaline hydrochloride as follows: 0.0 (saline), 4.0, 8.0, and 16.0 mg/kg, ip, 1-2 minutes before being placed in the recording chamber.
Data from the 30-min sessions were broken into 45 equal-length intervals of 40.96 s (or 2048 samples at a sampling rate of 50 Hz). […] Then, a tremor index was computed for each power spectrum. The tremor index was the difference between the average power in the 0.02-4.980 Hz frequency band and the 5.005-15.015 Hz frequency band of each power spectrum. This calculation emphasizes the peaking of the spectrum in the 5-15 Hz frequency band regardless of the absolute power level of the spectrum. A session average of the tremor index was obtained for each rat. Dose-effects statistical analyses were performed with one-way analysis of variance.

[3] = test system: CD-1, BALB/c and C57BL/6 mice; settings: 2.0 g/kg ip; for locomotor stimulation during the first time block: versus saline control
Procedure: The subjects were 12 male mice of each of the three strains: CD-1, BALB/c, and C57BL/6 obtained from Charles River Laboratories.
The force plate actometer was used as described above.
The mice were subdivided into groups of 6 each. One group received saline, and the corresponding other group of that strain received a dose of 2.0 g/kg of ethanol in a 20% aqueous solution. This was the first exposure to the chamber for these mice. Within 1-2 min of the ip injection the mice were placed in the chamber and behavior was recorded for 30 min.
The distance data were divided into 6 blocks of 5 min each, and analysis of variance (3 strains×saline vs drug×6 time blocks) was used to establish the presence of effects.

[4] = 3.0 mg/kg ip, Fourier analysis, FIG. 3

Compound: C[C@H](N)Cc1ccccc1 [amphetamine, d-amphetamine sulfate]
- mean number of wall rears (BALB/c and C57BL/6 mice; BALB/c mice, untreated mean 92.5 rears): 3.75 rears/session
- mean number of wall rears (BALB/c and C57BL/6 mice; C57BL/6 mice, untreated mean 70.8 rears): 3.5 rears/session
- number of low mobility bouts per frame versus saline control (male Sprague-Dawley rats; 3.0 mg/kg ip 15 min before 30-min session, 3rd injection, FIG. 1): comparable amounts of low mobility bouts
- stereotypy score (activity during low mobility bouts) versus saline control (male Sprague-Dawley rats; 3.0 mg/kg ip, 3rd injection, FIG. 2): very active
- visual observation of stereotypies on removal from the chamber (male Sprague-Dawley rats; 3.0 mg/kg ip, 3rd injection, n=9): all nine rats were engaged in classical nose poking, sniffing, and head-weaving stereotypies
- difference in spectral power, amphetamine rats above saline controls (male Sprague-Dawley rats; 3.0 mg/kg ip, FIG. 3 versus FIG. 4, controls show no 10-Hz peak): 10-20 db
- frequency range of strong rhythmicity in power spectra of low mobility bouts (male Sprague-Dawley rats; [4]): 8-11 Hz
- low frequency power in power spectra of low mobility bouts (male Sprague-Dawley rats; [4]): distinctive lack of low frequency power below about 0.5 Hz
- rotational behavior, movement tracings ([1]; one 6-OHDA lesioned rat, FIG. 8): robust rotational behavior
- rotations to the right in 30-min session ([1]; one 6-OHDA lesioned rat, third treatment, FIG. 10): 62 rotations
- bouts of high activity with low mobility (stereotypy score) ([1]; one 6-OHDA lesioned rat, third treatment, FIG. 12): four
- locomotion, movement tracings ([1]; one unlesioned control rat, FIG. 7): very little locomotion
- stereotypy score ([1]; one unlesioned control rat, frame 14 to end of session, FIG. 11): 250-300
- leftward rotations at the beginning of the session ([1]; one unlesioned control rat, third treatment, FIG. 9): 12 rotations
- distance traveled, ranking of strains ([2]; 2.5 mg/kg ip, CD-1, C57BL/6, BALB/c, FIG. 15): CD-1's were stimulated the most and the BALB/c's the least
- spatial statistic, restriction of movements in space ([2]; BALB/c mouse, the two highest doses (2.5 and 5.0 mg/kg)): greater tendency to restrict its movements in space
- distance traveled across the 5 treatment days ([2]; C57BL/6 mouse, 2.5 mg/kg ip): showed a sensitization effect
- movement trajectories (locomotion) ([2]; one C57BL/6 mouse, fifth injection of 5.0 mg/kg ip, FIG. 14 versus saline FIG. 13): locomotor stimulating effect of the drug is apparent
- distance traveled, effect of dose ([2]; three mouse strains, saline, 1.0, 2.5, 5.0 mg/kg ip, 5 days, ANOVA dose F(3,84)=73.787, p<0.001, strain-by-dose F(6,84)=9.293, p<0.001, FIG. 15): significant effects
- spatial statistic (spatial index), effect of dose ([2]; three mouse strains, saline, 1.0, 2.5, 5.0 mg/kg ip, ANOVA dose F(3,84)=38.192, p<0.001, strain-by-dose F(6,84)=4.991, p<0.001, FIG. 16): significant effects

Compound: COc1ccc2c3c([nH]c2c1)C(C)=NCC3.Cl [harmaline, Harmaline hydrochloride]
- effect of dose on tremor index (male Sprague Dawley rats; rats, 0, 4.0, 8.0, 16.0 mg/kg ip, session average, one-way ANOVA F (3,28)=5.090, p=0.006, FIG. 6): statistically significant
- latency to the first bout of low mobility (male Sprague Dawley rats; rats, 0-16.0 mg/kg ip, F(2,28)=3.222, p=0.038): significantly shortened
- shape of the dose-effect function of the tremor index (male Sprague Dawley rats; rats, 0-16.0 mg/kg ip, FIG. 6): log linear
- effect on locomotor activity (male Sprague Dawley rats; rats, 0-16.0 mg/kg ip, same session, F(3,28)=6.514, p=0.002): dose-relatedly suppressed locomotor activity
- peaking in the power spectra of Fz force (male Sprague Dawley rats; rats, the two higher doses (8.0 and 16.0 mg/kg ip), one rat per dose, FIG. 5): pronounced

Compound: CCO [ethanol]
- distance traveled, strain-by-ethanol interaction ([3]; ANOVA F(2,30)=3.257, p=0.05): significant strain-by-ethanol interaction
- distance traveled, time-by-ethanol interaction ([3]; ANOVA F(5,150)=7.629, p<0.001): significant-time-by-ethanol interaction
- locomotor stimulation during the first time block ([3]; BALB/c strain): greater amount of ethanol related locomotor stimulation
- proportional increase in activity, BALB/c versus other strains ([3]; BALB/c, early in session): greatest proportional increase in activity
- locomotor stimulation during the first time block ([3]; CD-1 strain): least stimulation
- distance traveled versus saline treated mice ([3]; three mouse strains, 30 min in 5-min blocks, FIG. 17): initially stimulated
